Experimental data: ChEMBL document CHEMBL1142535, “Rational design and synthesis of 4-((1R,2R)-2-hydroxycyclohexyl)-2(trifluoromethyl)benzonitrile (PF-998425), a novel, nonsteroidal androgen receptor antagonist devoid of phototoxicity for dermatological indications” (J Med Chem, 2008)
Activity calls are given as the source filed them. The rule behind the calls is not given here.

Experiments:
[1] = molecular target: T1, Progesterone receptor (Homo sapiens, UniProt P06401); experiment: Inhibition of progesterone receptor
T1 sequence (P06401 whole entry): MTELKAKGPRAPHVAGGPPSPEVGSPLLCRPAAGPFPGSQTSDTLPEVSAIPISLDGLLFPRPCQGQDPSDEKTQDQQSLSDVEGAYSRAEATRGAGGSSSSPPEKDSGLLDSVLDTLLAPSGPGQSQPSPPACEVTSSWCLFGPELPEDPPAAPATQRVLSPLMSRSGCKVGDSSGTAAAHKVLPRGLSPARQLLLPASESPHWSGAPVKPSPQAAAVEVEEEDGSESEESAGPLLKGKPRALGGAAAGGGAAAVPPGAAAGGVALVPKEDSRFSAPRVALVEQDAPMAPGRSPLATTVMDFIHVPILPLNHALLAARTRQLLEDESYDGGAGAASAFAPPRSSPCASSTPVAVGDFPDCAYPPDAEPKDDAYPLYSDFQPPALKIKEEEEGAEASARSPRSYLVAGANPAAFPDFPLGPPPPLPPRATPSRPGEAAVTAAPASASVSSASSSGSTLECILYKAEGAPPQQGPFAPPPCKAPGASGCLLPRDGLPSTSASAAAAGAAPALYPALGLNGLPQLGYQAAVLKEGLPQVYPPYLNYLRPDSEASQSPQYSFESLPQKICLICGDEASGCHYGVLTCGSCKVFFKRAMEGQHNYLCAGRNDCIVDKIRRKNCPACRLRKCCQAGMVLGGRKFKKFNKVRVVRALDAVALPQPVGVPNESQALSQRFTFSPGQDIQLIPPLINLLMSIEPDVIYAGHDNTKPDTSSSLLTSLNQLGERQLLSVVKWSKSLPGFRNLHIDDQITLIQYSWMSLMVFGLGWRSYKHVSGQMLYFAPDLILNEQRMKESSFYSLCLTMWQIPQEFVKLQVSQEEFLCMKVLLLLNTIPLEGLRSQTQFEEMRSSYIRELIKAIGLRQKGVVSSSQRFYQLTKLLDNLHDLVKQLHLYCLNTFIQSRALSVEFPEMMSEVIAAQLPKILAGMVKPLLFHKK

[2] = tested on: Syrian golden hamster; experiment: Reduction of sebum ester production in golden syrian hamster ear topically dosed at 3% twice daily 5 days per week for two weeks; assay type: functional, Mesocricetus auratus; set-up: scale not given: the % may be the effect or the level left
[3] = molecular target: T2, Androgen receptor (Homo sapiens, UniProt P10275)
T2 sequence (P10275 whole entry): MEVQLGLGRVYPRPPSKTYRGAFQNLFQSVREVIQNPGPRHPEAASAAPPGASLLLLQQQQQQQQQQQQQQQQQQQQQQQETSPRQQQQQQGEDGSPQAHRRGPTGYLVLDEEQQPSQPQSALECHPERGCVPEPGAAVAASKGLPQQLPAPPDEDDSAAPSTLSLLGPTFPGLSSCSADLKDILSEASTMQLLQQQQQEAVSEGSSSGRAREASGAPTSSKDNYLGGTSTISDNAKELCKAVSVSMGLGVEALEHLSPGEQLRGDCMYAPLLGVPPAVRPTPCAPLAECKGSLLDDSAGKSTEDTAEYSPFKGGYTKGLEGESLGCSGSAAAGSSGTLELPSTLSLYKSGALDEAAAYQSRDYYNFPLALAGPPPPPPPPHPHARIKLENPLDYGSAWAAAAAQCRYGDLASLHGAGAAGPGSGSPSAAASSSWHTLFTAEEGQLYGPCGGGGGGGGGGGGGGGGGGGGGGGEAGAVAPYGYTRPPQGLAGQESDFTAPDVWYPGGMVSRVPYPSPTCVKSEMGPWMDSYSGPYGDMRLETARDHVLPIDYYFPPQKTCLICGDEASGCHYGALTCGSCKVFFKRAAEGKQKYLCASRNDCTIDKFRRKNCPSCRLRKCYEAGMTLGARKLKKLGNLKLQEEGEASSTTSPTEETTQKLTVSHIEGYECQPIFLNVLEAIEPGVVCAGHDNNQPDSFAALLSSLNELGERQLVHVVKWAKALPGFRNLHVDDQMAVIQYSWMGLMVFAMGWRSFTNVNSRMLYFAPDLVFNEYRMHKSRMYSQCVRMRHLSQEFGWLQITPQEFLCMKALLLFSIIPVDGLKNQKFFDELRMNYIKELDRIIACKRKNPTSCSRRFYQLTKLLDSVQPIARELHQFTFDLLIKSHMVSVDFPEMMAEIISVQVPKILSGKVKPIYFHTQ
Description: Antagonist activity against human androgen receptor expressed in human MDA-MB-453 cells assessed as inhibition of dihydrotestosterone-induced effect by luciferase receptor gene assay

[4] = molecular target: T2, Androgen receptor; experiment: biochemical
Description: Displacement of [3H]dihydrotestosterone from human androgen receptor expressed in Sf9 cells

[5] = Metabolic stability assessed as half life in rat liver microsomes at 5 uM; assay type: ADME, Microsome
[6] = Metabolic stability assessed as intrinsic clearance per mg of protein in rat liver microsomes at 5 uM; assay type: ADME, Microsome
[7] = Plasma clearance in Beagle dog at 0.8 mg/kg, iv after 24 hrs; assay type: ADME, organism-based, Canis lupus familiaris; set-up: dose 0.8 mg/kg, route intravenous
[8] = Apparent volume of distribution in Beagle dog at 0.8 mg/kg, iv after 24 hrs; assay type: ADME, organism-based, Canis lupus familiaris; set-up: dose 0.8 mg/kg, route intravenous; conditions: in vivo, read-out: Vdss
[9] = Mean terminal half life in Beagle dog at 0.8 mg/kg, iv after 24 hrs; assay type: ADME, organism-based, Canis lupus familiaris; set-up: dose 0.8 mg/kg, route intravenous; conditions: in vivo, read-out: beta t1/2 (converted)
[10] = tested on: Mus musculus; experiment: Activation of hair growth in C3H/HeN mouse hair growth model topically dosed twice daily 5 days per week for 4 weeks; assay type: functional, organism-based
[11] = tested on: Syrian golden hamster; experiment: Reduction of sebum ester production in golden syrian hamster ear topically dosed twice daily 5 days per week for two weeks; assay type: functional, Mesocricetus auratus
[12] = tested on: NIH3T3; experiment: Phototoxicity in mouse 3T3 cells by neutral red uptake phototoxicity; assay type: cell-based

| SMILES | IC50 [1] [nM] | Activity [2] [%] | IC50 [3] [nM] | IC50 [4] [nM] | also measured |
| --- | --- | --- | --- | --- | --- |
| COc1cc(-c2ccccc2O)ccc1C#N | 3250 | 87 | 20.1 | 37 |  |
| N#Cc1ccc([C@H]2CCCC[C@@H]2O)cc1C(F)(F)F |  |  |  | > 3000 |  |
| N#Cc1ccc(-c2ccccc2O)cc1C(F)(F)F |  | 86 |  |  |  |
| CC1(C)C(=O)N(c2ccc(C#N)c(C(F)(F)F)c2)C(=O)N1CCCCO [RU-58841] | 1000 | 92 |  |  |  |
| N#Cc1ccc(O[C@@H]2CCCC[C@H]2C#N)cc1C(F)(F)F | > 10000 |  |  |  |  |
| N#Cc1ccc([C@H]2CCCC[C@H]2O)cc1C(F)(F)F | > 10000 | 85 | 43 | 37 | half-life at 5 µM [5]: 4 min; microsomal CLint at 5 µM [6]: 350 µL/min/mg; clearance [7]: 40 mL/min/kg; Vd [8]: 6.5 L/kg; half-life [9]: 2.6 h; Activity [10]: Active; ED50 [11]: 0.4%; Activity [12]: Non-toxic |
| N#Cc1ccc([C@@H]2CCCC[C@@H]2O)cc1C(F)(F)F |  |  |  | 1600 |  |
| C[C@H](c1ccccc1)N(C)c1cc(C(F)(F)F)c(C#N)cn1 | 1660 |  |  |  |  |
| N#Cc1ccc(C2CCCCC2O)cc1C(F)(F)F (racemic) | > 10000 |  | 90 | 26 |  |
